ChEMBL document CHEMBL1131254, “Molecular modeling studies of the DNA-topoisomerase I ternary cleavable complex with camptothecin” (J Med Chem, 1998)
Calls of active or inactive are those of the source. The rule behind the calls is not given here.

Experiments:
Assay type in all cases: functional
[1] = molecular target: T1, DNA topoisomerase 1 (Homo sapiens) (UniProt P11387); assay: The compound was tested for top1-induced DNA cleavage activity; - indicates inactive
T1 sequence (whole entry): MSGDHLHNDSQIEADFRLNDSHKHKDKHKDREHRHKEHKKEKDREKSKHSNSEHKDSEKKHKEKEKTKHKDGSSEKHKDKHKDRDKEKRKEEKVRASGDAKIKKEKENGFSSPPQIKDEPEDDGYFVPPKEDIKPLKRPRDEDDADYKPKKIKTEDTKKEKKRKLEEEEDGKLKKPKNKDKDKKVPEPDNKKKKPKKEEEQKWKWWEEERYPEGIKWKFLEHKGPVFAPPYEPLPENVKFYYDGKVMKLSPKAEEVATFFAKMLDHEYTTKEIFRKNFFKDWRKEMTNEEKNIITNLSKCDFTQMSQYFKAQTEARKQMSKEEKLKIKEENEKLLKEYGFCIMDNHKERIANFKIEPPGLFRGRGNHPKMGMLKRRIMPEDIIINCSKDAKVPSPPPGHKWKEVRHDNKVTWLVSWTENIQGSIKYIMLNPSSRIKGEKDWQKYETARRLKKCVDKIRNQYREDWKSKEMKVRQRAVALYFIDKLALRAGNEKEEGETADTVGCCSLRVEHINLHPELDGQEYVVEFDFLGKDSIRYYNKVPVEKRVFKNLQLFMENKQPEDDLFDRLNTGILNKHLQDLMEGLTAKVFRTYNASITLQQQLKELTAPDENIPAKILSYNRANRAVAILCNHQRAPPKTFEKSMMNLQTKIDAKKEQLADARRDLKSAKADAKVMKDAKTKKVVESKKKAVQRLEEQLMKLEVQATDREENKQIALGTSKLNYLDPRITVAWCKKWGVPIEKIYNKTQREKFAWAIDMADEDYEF

[2] = molecular target: T1, DNA topoisomerase 1 (Homo sapiens); assay: The compound was tested for top1-induced DNA cleavage activity; ++ indicates more potent than CPT
[3] = molecular target: T1, DNA topoisomerase 1 (Homo sapiens); assay: The compound was tested for top1-induced DNA cleavage activity; + indicates comparable to CPT

Compound | inhibition [1] | other results
CC[C@@]1(O)C(=O)OCc2c1cc1n(c2=O)Cc2cc3cc(OC)c(OC)cc3nc2-1 (stereo in doubt; form 1) | inactive | –
CC[C@]1(O)C(=O)OCc2c1cc1n(c2=O)Cc2cc3ccccc3nc2-1 | inactive | –
CC[C@@]1(O)C(=O)OCc2c1cc1n(c2=O)Cc2cc3cc(OC)c(OC)cc3nc2-1 (stereo in doubt; form 2) | inactive | –
CC[C@@]1(O)C(=O)OCc2c1cc1n(c2=O)Cc2cc3cc(N)c(O)cc3nc2-1 | – | inhibition [2]: more potent than CPT
CC[C@@]1(O)C(=O)OCc2c1cc1n(c2=O)Cc2c-1nc1cc3c(cc1c2CN1CCN(C)CC1)OCO3 | – | inhibition [2]: more potent than CPT
CC[C@@]1(O)C(=O)OCc2c1cc1n(c2=O)Cc2c-1nc1cc3c(cc1c2CN1CCN(C)CC1)OCCO3 | – | inhibition [2]: more potent than CPT
CC[C@@]1(O)C(=O)OCc2c1cc1n(c2=O)Cc2c-1nc1cnc(CN)cc1c2C | – | inhibition [3]: comparable to CPT
CC[C@@]1(O)C(=O)OCc2c1cc1n(c2=O)Cc2cc3cc(OC)c(OC)cc3nc2-1 (stereo in doubt; form 3) | inactive | –
CC[C@@]1(O)C(=O)OCc2cc3c(cc21)-c1nc2ccccc2cc1C3 | inactive | –
CC[C@H]1C(=O)OCc2c1cc1n(c2=O)Cc2cc3ccccc3nc2-1 | inactive | –
CC[C@@]1(O)C(=O)OCc2c1ccc1c2Cc2cc3ccccc3nc2-1 | inactive | –
